According to article PMC10377753, “Pharmacokinetic and pharmacodynamic properties of polymyxin B in Escherichia coli and Klebsiella pneumoniae murine infection models” (Journal of Antimicrobial Chemotherapy, 2023):
Where a name gives a salt, the structure may show the parent alone. Bridge positions count the residues as written; N and C are the ends. Square brackets hold non-standard residues; d marks the D form. Peptide text beside a SMILES is read from it. * marks the point of attachment. X1 = CC[C@H](C)CCCCC(=O)*; Dab = NCC[C@H](N)C(=O)O

Assays:
[1] = test system: K. pneumoniae isolates; assay: Dose-response study, thigh infection model, summary over K. pneumoniae isolates; type: in vivo, Klebsiella pneumoniae; conditions: mouse thigh infection
Description: Experiments were carried out in the Erasmus Laboratory Animal Science Centre in Rotterdam, The Netherlands in accordance with the EU Animal Directive 2010/63/EU 2010 directive[14] (licence number AVD101002016702) as described before,[15] with approval of the institutional Animal Welfare Body. Outbred female CD-1 mice obtained from Charles River Germany, weighing 20–25 g, 7–8 weeks old, were used in the experiments. The mice were housed under standard conditions with drink and feed supplied ad libitum.
Mice were rendered neutropenic by intraperitoneal injection of cyclophosphamide of 150 and 100 mg/kg, 4 days and 1 day before infection, respectively. On the day of infection, an overnight culture of the bacteria was diluted in fresh CAMHB and incubated at 37°C for 1 or 2 h depending on the growth rate of the strain. After incubation the inoculum was diluted in CAMHB or saline for the thigh and lung infection model, respectively, in order to obtain approximately 5.0 × 10^7 cfu/mL. Mice were then infected intramuscularly in each thigh (thigh infection model) or intranasally under isoflurane anaesthesia (lung infection model), with 0.05 mL of inoculum containing approximately 2.5 × 10^6 bacteria. Analgesia was given in the form of buprenorphine directly after infection, every 12 h.
(§1) For dose–response studies, a 6 hourly dosing regimen of 1–32 mg/kg was studied in the thigh infection model. Mice were infected with E. coli […], 15, 51 or 71 or K. pneumoniae ATCC 43816, 17, 58 or 74.
(§2) Animals were humanely euthanized 24 h (t = 24 h) after the first dose, unless the welfare of the animals necessitated earlier termination, following animal welfare regulations. Excised thighs were transferred to a pre-cooled 14 mL polypropylene tube containing 2 mL of PBS and were homogenized using a T25 ULTRA-TURRAX (IKA-Werke GmbH & Co, Staufen, Germany). A 10-fold dilution series was prepared and 3 × 10 μL was plated per dilution. The following day, colonies were counted and the number of cfu per thigh was calculated.
The drug effect was determined by the difference between the log10 cfu values at t = 0 h (mean value of two mice) and t = 24 h (value of individual mice) expressed as Δlog10 cfu. The fAUC/MIC, fCmax/MIC and %fT>MIC were determined based on the simulated time–concentration profiles over 24 h as derived in MicLab 2.71 (MEDIMATICS, Maastricht, The Netherlands) using 200 points per dosing interval.
A sigmoid maximum effect (Emax) model was fitted to the PK/PD index versus Δlog10 cfu data by non-linear regression, and static or a 1 log or 2 log kill effect were determined using GraphPad Prism 8.0 (GraphPad, Inc., San Diego, CA, USA). […]

[2] = Epithelial lining fluid (ELF) concentration from BAL, urea correction; type: in vivo; conditions: lung-infected mice
Description: Bronchoalveolar lavage (BAL) was performed immediately after blood collection. The trachea was exposed by a ventral vertical incision in the neck for insertion of a cannula. Lungs were instilled two times with 1 mL of sterile saline, and the fluid was recovered immediately. The recovered lavages were pooled, directly placed on ice, and subsequently stored at −80°C.
By taking BAL fluid samples and a plasma sample at the same timepoint, the concentrations in ELF could be determined. The ratio of the urea concentration in BAL to the concentration in plasma was used to determine the ELF concentration.[17] In short, polymyxin B concentration in ELF was calculated by multiplying the polymyxin B concentration in the BAL fluid by the ratio of the urea concentration in the plasma and BAL fluid: [polymyxin B]ELF = [polymyxin B]BAL × ([urea]Plasma/[urea]BAL). Urea concentrations were measured with an enzymatic assay (QuantiChrom urea assay kit; DIUR-100; BioAssay Systems, Hayward, CA, USA).
Polymyxin B concentrations in plasma, BAL and ultrafiltrates were determined by a validated LC-MS/MS method,[18] with a lower limit of quantification (LOQ) of 0.2 mg/L for plasma and 0.05 mg/L for BAL fluid and ultrafiltrates. […] The residues were dissolved in 0.1 mL of 0.1% formic acid in water and analysed by LC-MS/MS. […] Polymyxin B was analysed on an XBridge C18 column (5 µm, 2.1 × 150 mm; Waters). […]

[3] = Tolerability of subcutaneous dosing in infected neutropenic mice; type: in vivo
Description: Dose-fractionation studies were performed for E. coli ATCC 25922 and K. pneumoniae 104 in the thigh infection model. Two hours after infection, treatment with polymyxin B was administered subcutaneously over 24 h at the following dosing regimens: 4–128 mg/kg q6h [total daily dose (TDD) 16–512 mg/kg]; 8–256 mg/kg q12h (TDD 16–512 mg/kg); 256–512 mg/kg q24h (TDD 256–512 mg/kg).
as §1, §2

CC[C@H](C)CCCCC(=O)N[C@@H](CCN)C(=O)N[C@H](C(=O)N[C@@H](CCN)C(=O)N[C@H]1CCNC(=O)[C@H]([C@@H](C)O)NC(=O)[C@H](CCN)NC(=O)[C@H](CCN)NC(=O)[C@H](CC(C)C)NC(=O)[C@@H](Cc2ccccc2)NC(=O)[C@H](CCN)NC1=O)[C@@H](C)O [polymyxin B, Polymyxin B sulphate salt] (X1-[Dab]T[Dab][Dab][Dab][dF]L[Dab][Dab]T; lactam 4-C)
Isolates in which 1 log kill was found ([1]; K. pneumoniae isolates): 1/4 | Target value of fAUC/MIC, static effect, average ([1]; average of four K. pneumoniae isolates, q6h): 22.4 | Target value of fAUC/MIC, static effect, median ([1]; median of four K. pneumoniae isolates, q6h): 11.6 | Target value of fAUC/MIC, static effect, range ([1]; range over four K. pneumoniae isolates, q6h): 5.9–60.5 | Concentration in ELF ([2]; 64 mg/kg s.c., BAL, urea correction, data not shown): Low levels | Concentration in ELF ([2]; other doses (1, 4, 16 mg/kg s.c.), LOQ 0.05 mg/L for BAL fluid): below the LOQ | Mice in which the last (fourth) administration was not tolerated ([3]; 32 mg/kg q6h (TDD 128 mg/kg) s.c.): 2/4 | Tolerability ([3]; doses >64 mg/kg s.c., dose fractionation studies, neutropenic infected mice): not tolerated
